In assay [1] the target is influenza virus haemagglutinin (HA) monomer (Influenza A virus, UniProt P03437). The settings on record: read-out: affinity for its receptor; cited from earlier work.
Assay [2] deals with Vc2CBMTD (two tandem CBMs of V. cholerae NanH sialidase, residues 25-216, SEQ ID NO: 2, fused to trimerisation domain of P. aeruginosa pseudaminidase, residues 333-438, SEQ ID NO: 6) (Vibrio cholerae serotype O1, UniProt A5F7A4). Nature of the assay: Surface plasmon resonance (Biacore T-100): binding to immobilized multivalent, biotinylated α-2,3-sialyllactose-PAA. The conditions noted are these: mean ± s.d. of three replicates. For orientation: SPR reads the build-up and loss of mass on a sensor chip optically.
Description: (§1) Tandem-repeat multivalent protein, Vc4CBM, based on the Family 40^31 sialic acid binding domain (CBM) of the nanH gene encoding the sialidase from V. cholerae, was generated using PCR-based cloning techniques as described previously^8. Oligomerisation of the CBM domain from V. cholerae nanH sialidase, and from S. pneumoniae nanA sialidase, using the trimerisation domain from the pseudaminidase protein from Pseudomonas aeruginosa was engineered as follows: the DNA fragments encoding the CBM of V. cholerae sialidase residues 25-216, and that of S. pneumoniae nanA sialidase residues 121-305, respectively, were modified at the 5′ and 3′ termini by PCR amplification using primer pairs (Table 3) to incorporate different restriction sites to link one or two copies of the CBM unit in tandem for subsequent ligation to the gene encoding the trimerization domain from P. aeruginosa pseudaminidase residues 333-438 (PaTD). The resulting fragments were cloned either into an appropriately digested pEHISTEV vector (for VcCBM fragments) or pEGFP-HISTEV vector (for SpCBM fragments) to create constructs designated as VcCBMTD, Vc2CBMTD, SpCBMTD and Sp2CBMTD, respectively (FIG. 1). […] All constructs were propagated in E. coli DH5a cells, and constructs were verified by DNA sequencing, before transforming the expression host E. coli BL21 Gold (DE3) for protein production.
(§2) Expression of engineered mCBMs was performed as described previously^8 with some modifications. Briefly, E. coli cells containing either His-tagged VcCBMs or GFP-His-tagged SpCBMs were lysed in a buffer containing PBS, 0.3M NaCl and 10 mM imidazole with DNAase (20 μg/ml) and protease (minus EDTA) inhibitor tablets (Roche). Clarified lysates were applied onto a HisTrap HP column, pre-charged with nickel (GE Healthcare) before elution of histidine-tagged CBMs using PBS containing 0.3 M NaCl and 250 mM imidazole. Removal of tag, unless otherwise stated, was performed by digestion in situ with TEV protease overnight before re-applying material to the nickel column. All mCBM proteins were further purified using size exclusion chromatography with a HiPrep 16/60 Sephacryl S200HR column (GE Healthcare) in PBS before using either a Vivapure S Maxi H (VcCBMs) or Q Maxi H (SpCBMs) column (Sartorius) to remove endotoxins. GFP-tagged proteins were also subjected to affinity chromatography and size exclusion chromatography as described above. […] Protein purity and size were verified by 12% SDS polyacrylamide gel electrophoresis and mass spectrometry. Purified mCBMs binding to sialic acid was verified by surface plasmon resonance (Biacore T-100, University of Edinburgh) using a streptavidin-coated biosensor chip immobilized with a multivalent, biotinylated α-2,3-sialyllactose-PAA (Glycotech) (Table 1).

The target in assay [3] is VcCBMTD (CBM of V. cholerae NanH sialidase, residues 25-216, SEQ ID NO: 2, fused to trimerisation domain of P. aeruginosa pseudaminidase, residues 333-438, SEQ ID NO: 6) (Vibrio cholerae, UniProt A5F7A4). The description is as above. The settings on record: mean ± s.d. of three replicates.
Description: as §1, §2
The target in assay [4] is multivalent forms of VcCBM and SpCBM. The experiment in a line: Surface plasmon resonance, summary statement for the multivalent forms. The settings on record: read-out: dissociation constants, SPR.
Description: Tandem-repeat multivalent protein, Vc4CBM, based on the Family 40^31 sialic acid binding domain (CBM) of the nanH gene encoding the sialidase from V. cholerae, was generated using PCR-based cloning techniques as described previously^8. Oligomerisation of the CBM domain from V. cholerae nanH sialidase, and from S. pneumoniae nanA sialidase, using the trimerisation domain from the pseudaminidase protein from Pseudomonas aeruginosa was engineered as follows: the DNA fragments encoding the CBM of V. cholerae sialidase residues 25-216, and that of S. pneumoniae nanA sialidase residues 121-305, respectively, were modified at the 5′ and 3′ termini by PCR amplification using primer pairs (Table 3) to incorporate different restriction sites to link one or two copies of the CBM unit in tandem for subsequent ligation to the gene encoding the trimerization domain from P. aeruginosa pseudaminidase residues 333-438 (PaTD). The resulting fragments were cloned either into an appropriately digested pEHISTEV vector (for VcCBM fragments) or pEGFP-HISTEV vector (for SpCBM fragments) to create constructs designated as VcCBMTD, Vc2CBMTD, SpCBMTD and Sp2CBMTD, respectively (FIG. 1). […] All constructs were propagated in E. coli DH5a cells, and constructs were verified by DNA sequencing, before transforming the expression host E. coli BL21 Gold (DE3) for protein production. […]
Assay [5] addresses Vc4CBM (tandem-repeat multivalent protein of four sialic acid binding domains of V. cholerae NanH sialidase, residues 25-216, SEQ ID NO: 2) (Vibrio cholerae, UniProt A5F7A4). Nature of the assay: Surface plasmon resonance (Biacore T-100): binding to immobilized multivalent, biotinylated α-2,3-sialyllactose-PAA. The conditions noted are these: mean ± s.d. of three replicates.
Description: as §1, §2
Where [6] appears, read: read-out: ka (association ('on') rate constant), 15 °C.
[7] abbreviates: read-out: ka (association ('on') rate constant), 25 °C.
The mark [8] stands for this setting: read-out: ka (association ('on') rate constant), 37 °C.
Setting [9] is: read-out: kd (dissociation ('off') rate constant), 15 °C.
[10] abbreviates: read-out: kd (dissociation ('off') rate constant), 25 °C.
[11] abbreviates: read-out: kd (dissociation ('off') rate constant), 37 °C.

In US10363298B2, “Immunomodulatory compounds” (priority 2014, dated 2019) one finds Kd, kon and koff data, which are given here for two compounds.

Read-outs that look alike come from different tables or passages of the source.

As to sialic acid, the Kd in assay [1] was ~2500 µM.
With `CC(=O)N[C@H]1[C@H]([C@H](O)[C@H](O)CO)O[C@@](O[C@H]2[C@@H](O)[C@@H](CO)O[C@@H](O[C@H]3[C@H](O)[C@@H](O)C(O)O[C@@H]3CO)[C@@H]2O)(C(=O)O)C[C@@H]1O` (stereo partly drawn) [α-2,3-sialyllactose], the kon in assay [2] (setting [6]) turned out to be 1.83e+06 ± 10000 M⁻¹ s⁻¹; in assay [2] (setting [7]), 1.73e+06 ± 10000 M⁻¹ s⁻¹; in assay [2] (setting [8]) it was 8.45e+06 ± 50000 M⁻¹ s⁻¹; in assay [3] (setting [6]), 2.55e+06 ± 20000 M⁻¹ s⁻¹; in assay [3] (setting [7]) it was 7.24e+06 ± 60000 M⁻¹ s⁻¹; in assay [3] (setting [8]), 2.07e+07 ± 540000 M⁻¹ s⁻¹. Besides, the figures for the kon in assay [5] (setting [6]), in assay [5] (setting [7]) and in assay [5] (setting [8]) were 540000 ± 10000 M⁻¹ s⁻¹, 3.56e+06 ± 20000 M⁻¹ s⁻¹ and 2.98e+06 ± 20000 M⁻¹ s⁻¹, respectively. Besides, the koff turned out to be 0.00033 ± 1e-05 s⁻¹ in assay [2] (setting [9]); 0.0007 ± 1e-05 s⁻¹ in assay [2] (setting [10]); 0.00207 ± 1e-05 s⁻¹ in assay [2] (setting [11]); 0.0042 ± 2e-05 s⁻¹ in assay [3] (setting [9]); 0.0124 ± 0.0001 s⁻¹ in assay [3] (setting [10]); 0.107 s⁻¹ in assay [3] (setting [11]). Besides, the results for the koff in assay [5] (setting [9]), in assay [5] (setting [10]) and in assay [5] (setting [11]) were 0.00051 ± 1e-05 s⁻¹, 0.0016 ± 1e-05 s⁻¹ and 0.00541 ± 4e-05 s⁻¹, respectively. For the same compound, in assay [4], the Kd is < 0.001 µM.
